Results on 17 compounds are retold here after PubChem BioAssay (NCI).

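Assay format: 96-well plates, 48-hour exposure. GI50 marks 50% less growth. At the TGI there is no net growth.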

The test system of the first assay is SK-OV-3 ovarian. Nature of the assay: growth of human tumour cells (NCI), 48 h.
In the case of `C[C@H]1[C@H](C)CC[C@]2(CO)CC[C@]3(C)C(=CC[C@@H]4[C@@]5(C)CCCNC(C)(C)[C@@H]5CC[C@]43C)[C@H]12`, the GI50 is 2.54 µM and the TGI came out at 6.97 µM.

Compound `O=C(O)C(/C=C/c1ccccc1)c1ccccc1` (stereo not drawn) yielded a TGI of more than 100 µM.

As to `COc1ccc(-c2cn(-c3cc(OC)c(OC)c(OC)c3)c(SCc3ccccc3)n2)cc1OC`, the GI50 is more than 100 µM and the TGI was more than 100 µM.

For the compound `COc1c(C)c2c(c(O)c1C/C=C(\C)CCC(=O)O)C(=O)OC2`, the GI50 is 0.571 µM and the TGI is more than 100 µM.

Take `Cc1cc(O)c(C(C)C)cc1S(=O)(=O)O` (tested in a mixture with another compound): the GI50 is 0.27 µM.

With `COc1cc(C(=O)O[C@H](C(=O)NCCCCCNC(=O)[C@@H](OC(=O)c2cc(OC)cc3c(C)cccc23)[C@]2(C)CO2)[C@]2(C)CO2)c2cccc(C)c2c1`, the GI50 is 3.28 µM and the TGI was more than 30.1 µM.

In the case of `COC(=O)C1(C)CCC(c2ccc(C)cc2)=C(CC(=O)O)C1` (stereo not drawn), the TGI was more than 100 µM.

On to `COc1cc(OC(=O)c2ccccc2)cc2c1C(=O)C=CC2=O`, for which the TGI came out at 37 µM.

Consider `CC/C=C1/C(=O)C=C[C@@H]1C/C=C\CCCC(=O)OC`, for which the GI50 is 7.15 µM and the TGI came out at 19.5 µM.

For the compound `COc1ccc(/C(COc2ccc3c(=O)cc(-c4ccccc4)oc3c2)=N\O)cc1`, the GI50 was 16.1 µM and the TGI amounted to 48.4 µM.

Regarding `CC(C)(C)OC(=O)N1CCN(CCn2cc(C(F)(F)F)c3c(Cl)ncnc32)CC1`, the GI50 was 16.7 µM and the TGI came out at 30.7 µM.

On to `COc1cc([N+](=O)[O-])c(OC)cc1-c1nc2sc(Cl)cn2c1/C(N)=N/C(=N)N`, for which the GI50 was 23.7 µM and the TGI was more than 62.1 µM.

In the case of `CCC1C2Cc3ccc(O)cc3C1(CC)CCN2C` (stereo not drawn), the TGI is more than 100 µM.

Turning to `CN(CCCn1c2c(c3ccccc3c1=O)C(=O)c1ccccc1-2)CCCn1c2c(c3ccccc3c1=O)C(=O)c1ccccc1-2`, the GI50 was 5.45 µM and the TGI is 19.7 µM.

`C(#Cc1ccccc1C#Cc1cccs1)c1cccs1`: the GI50 is 33.9 µM and the TGI was more than 100 µM.

Take `COc1ccc2cc(C(=O)/C=C/c3ccc(Cl)cc3Cl)ccc2c1`: the GI50 was 61.6 µM and the TGI is more than 100 µM.

The next assay has as its system T-47D breast. Nature of the assay: growth of human tumour cells (NCI), 48 h.
With `CC(C)(C)c1ccc(Oc2nccc(-c3c(-c4ccc(F)cc4)ncn3C3CCNCC3)n2)cc1`, the GI50 is 4.46 µM and the TGI came out at 8.56 µM.

As for `C[C@H]1[C@H](C)CC[C@]2(CO)CC[C@]3(C)C(=CC[C@@H]4[C@@]5(C)CCCNC(C)(C)[C@@H]5CC[C@]43C)[C@H]12`, the GI50 was 1.68 µM and the TGI was found to be 4.03 µM.

Regarding `O=C(O)C(/C=C/c1ccccc1)c1ccccc1` (stereo not drawn), the TGI is more than 100 µM.

Turning to `COc1ccc(-c2cn(-c3cc(OC)c(OC)c(OC)c3)c(SCc3ccccc3)n2)cc1OC`, the GI50 was 41.5 µM and the TGI is more than 100 µM.

As for `COc1c(C)c2c(c(O)c1C/C=C(\C)CCC(=O)O)C(=O)OC2`, the GI50 was 0.663 µM and the TGI is more than 100 µM.

As to `Cc1cc(O)c(C(C)C)cc1S(=O)(=O)O` (tested in a mixture with another compound), the GI50 was 0.856 µM and the TGI stood at 4.79 µM.

For the compound `COc1cc(C(=O)O[C@H](C(=O)NCCCCCNC(=O)[C@@H](OC(=O)c2cc(OC)cc3c(C)cccc23)[C@]2(C)CO2)[C@]2(C)CO2)c2cccc(C)c2c1`, the GI50 is 1 µM.

As for `COC(=O)C1(C)CCC(c2ccc(C)cc2)=C(CC(=O)O)C1` (stereo not drawn), the TGI is more than 100 µM.

`COc1cc(OC(=O)c2ccccc2)cc2c1C(=O)C=CC2=O` had a TGI of 4.73 µM.

In the case of `CC/C=C1/C(=O)C=C[C@@H]1C/C=C\CCCC(=O)OC`, the GI50 was 3.79 µM and the TGI was 16.7 µM.

For `COc1ccc(/C(COc2ccc3c(=O)cc(-c4ccccc4)oc3c2)=N\O)cc1`, the GI50 is 21.7 µM and the TGI was more than 45.8 µM.

`CC(C)(C)OC(=O)N1CCN(CCn2cc(C(F)(F)F)c3c(Cl)ncnc32)CC1`: the GI50 is 11.5 µM and the TGI worked out at 34.5 µM.

Regarding `COc1cc([N+](=O)[O-])c(OC)cc1-c1nc2sc(Cl)cn2c1/C(N)=N/C(=N)N`, the GI50 was 2.31 µM and the TGI was 5.63 µM.

In turn, `CCC1C2Cc3ccc(O)cc3C1(CC)CCN2C` (stereo not drawn) showed a TGI of more than 100 µM.

Take `CN(CCCn1c2c(c3ccccc3c1=O)C(=O)c1ccccc1-2)CCCn1c2c(c3ccccc3c1=O)C(=O)c1ccccc1-2`: the GI50 was 0.259 µM and the TGI was determined as 18.3 µM.

`C(#Cc1ccccc1C#Cc1cccs1)c1cccs1`: the GI50 is 30.2 µM and the TGI is more than 100 µM.

For the compound `COc1ccc2cc(C(=O)/C=C/c3ccc(Cl)cc3Cl)ccc2c1`, the GI50 was 20.8 µM and the TGI was 66.8 µM.

For the next assay, the system named is OVCAR-8 ovarian. Nature of the assay: growth of human tumour cells (NCI), 48 h.
As for `CC(C)(C)c1ccc(Oc2nccc(-c3c(-c4ccc(F)cc4)ncn3C3CCNCC3)n2)cc1`, the GI50 is 3.72 µM and the TGI stood at 7.36 µM.

In the case of `C[C@H]1[C@H](C)CC[C@]2(CO)CC[C@]3(C)C(=CC[C@@H]4[C@@]5(C)CCCNC(C)(C)[C@@H]5CC[C@]43C)[C@H]12`, the GI50 was 1.96 µM and the TGI was 3.61 µM.

With `O=C(O)C(/C=C/c1ccccc1)c1ccccc1` (stereo not drawn), the TGI is more than 100 µM.

Turning to `COc1ccc(-c2cn(-c3cc(OC)c(OC)c(OC)c3)c(SCc3ccccc3)n2)cc1OC`, the GI50 was more than 100 µM and the TGI was more than 100 µM.

Turning to `COc1c(C)c2c(c(O)c1C/C=C(\C)CCC(=O)O)C(=O)OC2`, the GI50 was 0.443 µM and the TGI is more than 100 µM.

In the case of `Cc1cc(O)c(C(C)C)cc1S(=O)(=O)O` (tested in a mixture with another compound), the GI50 is 0.335 µM.

As for `COC(=O)C1(C)CCC(c2ccc(C)cc2)=C(CC(=O)O)C1` (stereo not drawn), the TGI was more than 100 µM.

On to `COc1cc(OC(=O)c2ccccc2)cc2c1C(=O)C=CC2=O`, for which the TGI was 63.3 µM.

As to `CC/C=C1/C(=O)C=C[C@@H]1C/C=C\CCCC(=O)OC`, the GI50 is 3.72 µM and the TGI stood at 14.9 µM.

Regarding `COc1ccc(/C(COc2ccc3c(=O)cc(-c4ccccc4)oc3c2)=N\O)cc1`, the GI50 was 21.4 µM and the TGI was more than 35.5 µM.

Regarding `CC(C)(C)OC(=O)N1CCN(CCn2cc(C(F)(F)F)c3c(Cl)ncnc32)CC1`, the GI50 was 2.06 µM and the TGI turned out to be 3.76 µM.

In turn, `CCC1C2Cc3ccc(O)cc3C1(CC)CCN2C` (stereo not drawn) registered a TGI of more than 100 µM.

As to `C(#Cc1ccccc1C#Cc1cccs1)c1cccs1`, the GI50 is more than 100 µM and the TGI is more than 100 µM.

On to `COc1ccc2cc(C(=O)/C=C/c3ccc(Cl)cc3Cl)ccc2c1`, for which the GI50 is 14.8 µM and the TGI was 30.4 µM.

Another assay has as its system UO-31 renal. Nature of the assay: growth of human tumour cells (NCI), 48 h.
For `CC(C)(C)c1ccc(Oc2nccc(-c3c(-c4ccc(F)cc4)ncn3C3CCNCC3)n2)cc1`, the GI50 was 2.61 µM and the TGI turned out to be 6.61 µM.

For the compound `C[C@H]1[C@H](C)CC[C@]2(CO)CC[C@]3(C)C(=CC[C@@H]4[C@@]5(C)CCCNC(C)(C)[C@@H]5CC[C@]43C)[C@H]12`, the GI50 was 1.54 µM and the TGI came to 2.99 µM.

Consider `O=C(O)C(/C=C/c1ccccc1)c1ccccc1` (stereo not drawn), for which the TGI is more than 100 µM.

For the compound `COc1ccc(-c2cn(-c3cc(OC)c(OC)c(OC)c3)c(SCc3ccccc3)n2)cc1OC`, the GI50 is 45.5 µM and the TGI is more than 100 µM.

In the case of `COc1c(C)c2c(c(O)c1C/C=C(\C)CCC(=O)O)C(=O)OC2`, the GI50 is 0.472 µM and the TGI is more than 100 µM.

Turning to `Cc1cc(O)c(C(C)C)cc1S(=O)(=O)O` (tested in a mixture with another compound), the GI50 was 0.382 µM.

As for `COc1cc(C(=O)O[C@H](C(=O)NCCCCCNC(=O)[C@@H](OC(=O)c2cc(OC)cc3c(C)cccc23)[C@]2(C)CO2)[C@]2(C)CO2)c2cccc(C)c2c1`, the GI50 is 2.24 µM and the TGI was more than 100 µM.

Take `COc1cc(OC(=O)c2ccccc2)cc2c1C(=O)C=CC2=O`: the TGI came out at 22.8 µM.

On to `CC/C=C1/C(=O)C=C[C@@H]1C/C=C\CCCC(=O)OC`, for which the GI50 is 2.24 µM and the TGI stood at 5.43 µM.

With `COc1ccc(/C(COc2ccc3c(=O)cc(-c4ccccc4)oc3c2)=N\O)cc1`, the GI50 is 13.5 µM and the TGI was more than 50 µM.

In the case of `CC(C)(C)OC(=O)N1CCN(CCn2cc(C(F)(F)F)c3c(Cl)ncnc32)CC1`, the GI50 is 11.6 µM and the TGI is 24.4 µM.

Take `COc1cc([N+](=O)[O-])c(OC)cc1-c1nc2sc(Cl)cn2c1/C(N)=N/C(=N)N`: the GI50 is 26.2 µM and the TGI was more than 61.8 µM.

`CCC1C2Cc3ccc(O)cc3C1(CC)CCN2C` (stereo not drawn) showed a TGI of more than 100 µM.

In the case of `CN(CCCn1c2c(c3ccccc3c1=O)C(=O)c1ccccc1-2)CCCn1c2c(c3ccccc3c1=O)C(=O)c1ccccc1-2`, the GI50 is 1.42 µM and the TGI is 6.26 µM.

For `C(#Cc1ccccc1C#Cc1cccs1)c1cccs1`, the GI50 was 35.8 µM and the TGI is more than 100 µM.

Regarding `COc1ccc2cc(C(=O)/C=C/c3ccc(Cl)cc3Cl)ccc2c1`, the GI50 was 15.5 µM and the TGI is 32.3 µM.

A further assay relates to CAKI-1 renal. Nature of the assay: growth of human tumour cells (NCI), 48 h.
As to `CC(C)(C)c1ccc(Oc2nccc(-c3c(-c4ccc(F)cc4)ncn3C3CCNCC3)n2)cc1`, the GI50 is 3.96 µM and the TGI stood at 7.64 µM.

Turning to `C[C@H]1[C@H](C)CC[C@]2(CO)CC[C@]3(C)C(=CC[C@@H]4[C@@]5(C)CCCNC(C)(C)[C@@H]5CC[C@]43C)[C@H]12`, the GI50 is 1.62 µM and the TGI came to 3.23 µM.

`COc1ccc(-c2cn(-c3cc(OC)c(OC)c(OC)c3)c(SCc3ccccc3)n2)cc1OC`: the GI50 is more than 100 µM and the TGI is more than 100 µM.

For the compound `COc1c(C)c2c(c(O)c1C/C=C(\C)CCC(=O)O)C(=O)OC2`, the GI50 was 0.134 µM and the TGI came out at 14.7 µM.

For `Cc1cc(O)c(C(C)C)cc1S(=O)(=O)O` (tested in a mixture with another compound), the GI50 is 0.435 µM and the TGI is 10.8 µM.

For the compound `COc1cc(C(=O)O[C@H](C(=O)NCCCCCNC(=O)[C@@H](OC(=O)c2cc(OC)cc3c(C)cccc23)[C@]2(C)CO2)[C@]2(C)CO2)c2cccc(C)c2c1`, the GI50 is 0.355 µM and the TGI was 1.89 µM.

Compound `COc1cc(OC(=O)c2ccccc2)cc2c1C(=O)C=CC2=O` displayed a TGI of 37 µM.

As for `CC/C=C1/C(=O)C=C[C@@H]1C/C=C\CCCC(=O)OC`, the GI50 is 2.7 µM and the TGI came to 7.45 µM.

Regarding `COc1ccc(/C(COc2ccc3c(=O)cc(-c4ccccc4)oc3c2)=N\O)cc1`, the GI50 was 1.83 µM and the TGI turned out to be 28.4 µM.

Consider `COc1cc([N+](=O)[O-])c(OC)cc1-c1nc2sc(Cl)cn2c1/C(N)=N/C(=N)N`, for which the GI50 was 39 µM and the TGI is more than 100 µM.

In turn, `CCC1C2Cc3ccc(O)cc3C1(CC)CCN2C` (stereo not drawn) showed a TGI of more than 100 µM.

Consider `CN(CCCn1c2c(c3ccccc3c1=O)C(=O)c1ccccc1-2)CCCn1c2c(c3ccccc3c1=O)C(=O)c1ccccc1-2`, for which the GI50 was 2 µM and the TGI amounted to 24.8 µM.

Regarding `C(#Cc1ccccc1C#Cc1cccs1)c1cccs1`, the GI50 was 43.2 µM and the TGI is more than 100 µM.

For the compound `COc1ccc2cc(C(=O)/C=C/c3ccc(Cl)cc3Cl)ccc2c1`, the GI50 was 15.8 µM and the TGI was found to be 70 µM.
